Active and inactive are the calls of the source. The rule behind the calls is not given here.
What was measured:
[1] = tested on: Rattus norvegicus; experiment: Inhibition of FAAH in Sprague-Dawley rat brain homogenate assessed as increase in OEA levels at 20 mg/kg after 0.5 to 4 hrs by […]; format: functional, organism-based
[2] = tested on: Rattus norvegicus; experiment: Inhibition of FAAH in Sprague-Dawley rat brain homogenate assessed as reduction in residual activity measured as [3H]-anandamide hydrolysis at 20 mg/kg after 30 mins by liquid scintillation analysis; settings: read-out: INH
[3] = Clearance in Sprague-Dawley rat; format: ADME, organism-based; settings: in vivo
[4] = tested on: Rattus norvegicus; experiment: Inhibition of FAAH in Sprague-Dawley rat brain homogenate assessed as residual activity measured as [3H]-anandamide hydrolysis at 20 mg/kg after 1 hr by liquid scintillation analysis; format: functional
[5] = tested on: Rattus norvegicus; experiment: Inhibition of FAAH in Sprague-Dawley rat brain homogenate assessed as time duration needed for enzyme activity recovery by measuring [3H]-anandamide hydrolysis at 20 mg/kg by liquid scintillation analysis; format: functional
[6] = Dissociation constant, pKa of the compound at pH 7.2; format: physicochemical
[7] = Volume of distribution at Steady state in Sprague-Dawley rat; format: ADME, organism-based; settings: in vivo, read-out: Vdss
[8] = tested on: Rattus norvegicus; experiment: Inhibition of FAAH in Sprague-Dawley rat brain homogenate assessed as increase in PEA levels at 20 mg/kg after 0.5 to 4 hrs by […]; format: functional, organism-based
[9] = tested on: Rattus norvegicus; experiment: Inhibition of FAAH in Sprague-Dawley rat brain homogenate assessed as residual activity measured as [3H]-anandamide hydrolysis at 20 mg/kg after 4 hrs by liquid scintillation analysis; format: functional
[10] = Oral bioavailability in Sprague-Dawley rat; format: ADME, organism-based; settings: in vivo
[11] = Ratio of drug level in brain to plasma in Sprague-Dawley rat at 0.6 mg/kg via oral gavage; format: ADME, organism-based; settings: read-out: BPR
[12] = Ratio of drug level in brain to plasma in Sprague-Dawley rat at 6 mg/kg via oral gavage; format: ADME, organism-based; settings: read-out: BPR
[13] = Ratio of drug level in brain to plasma in Sprague-Dawley rat at 20 mg/kg via oral gavage; format: ADME, organism-based; settings: read-out: BPR
[14] = tested on: Rattus norvegicus; experiment: In-vivo reversible inhibition of FAAH in Sprague-Dawley rat brain homogenate assessed as residual activity measured as [3H]-anandamide hydrolysis after 48 hrs by liquid scintillation analysis; format: functional, organism-based
[15] = Dissociation constant, pKa of the compound; format: physicochemical
[16] = tested on: Rattus norvegicus; experiment: Inhibition of FAAH in Sprague-Dawley rat brain homogenate assessed as increase in PEA levels at 0.1 to 100 mg/kg measured 4 hrs post dosing by […]; format: functional, organism-based
[17] = tested on: Rattus norvegicus; experiment: Inhibition of FAAH in Sprague-Dawley rat brain homogenate assessed as increase in OEA levels at 0.1 to 100 mg/kg measured 4 hrs post dosing by […]; format: functional, organism-based
[18] = target: T1, Fatty-acid amide hydrolase 1 (Homo sapiens, UniProt O00519)
T1 sequence (O00519 whole entry): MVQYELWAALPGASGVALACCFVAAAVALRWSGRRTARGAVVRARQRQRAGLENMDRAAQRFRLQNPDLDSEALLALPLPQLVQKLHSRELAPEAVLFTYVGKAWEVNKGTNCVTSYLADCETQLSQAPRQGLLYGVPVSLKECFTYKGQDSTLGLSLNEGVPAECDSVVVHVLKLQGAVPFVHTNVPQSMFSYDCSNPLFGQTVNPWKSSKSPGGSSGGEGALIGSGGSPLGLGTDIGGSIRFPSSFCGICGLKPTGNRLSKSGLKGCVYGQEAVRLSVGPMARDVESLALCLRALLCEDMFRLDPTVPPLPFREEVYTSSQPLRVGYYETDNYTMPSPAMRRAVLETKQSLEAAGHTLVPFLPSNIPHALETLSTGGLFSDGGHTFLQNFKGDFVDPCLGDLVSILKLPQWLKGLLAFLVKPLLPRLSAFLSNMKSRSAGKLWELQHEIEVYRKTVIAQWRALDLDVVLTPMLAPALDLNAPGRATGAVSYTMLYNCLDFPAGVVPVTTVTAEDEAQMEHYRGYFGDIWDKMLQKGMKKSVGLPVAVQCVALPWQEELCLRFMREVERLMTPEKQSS

[19] = target: T2, Fatty-acid amide hydrolase 1 (Rattus norvegicus, UniProt P97612); experiment: Apparent inhibition of recombinant rat FAAH expressed in SK-N-MC cells assessed as [3H]-anandamide hydrolysis after 1 hr by liquid scintillation analysis; format: cell-based
T2 sequence (P97612 whole entry): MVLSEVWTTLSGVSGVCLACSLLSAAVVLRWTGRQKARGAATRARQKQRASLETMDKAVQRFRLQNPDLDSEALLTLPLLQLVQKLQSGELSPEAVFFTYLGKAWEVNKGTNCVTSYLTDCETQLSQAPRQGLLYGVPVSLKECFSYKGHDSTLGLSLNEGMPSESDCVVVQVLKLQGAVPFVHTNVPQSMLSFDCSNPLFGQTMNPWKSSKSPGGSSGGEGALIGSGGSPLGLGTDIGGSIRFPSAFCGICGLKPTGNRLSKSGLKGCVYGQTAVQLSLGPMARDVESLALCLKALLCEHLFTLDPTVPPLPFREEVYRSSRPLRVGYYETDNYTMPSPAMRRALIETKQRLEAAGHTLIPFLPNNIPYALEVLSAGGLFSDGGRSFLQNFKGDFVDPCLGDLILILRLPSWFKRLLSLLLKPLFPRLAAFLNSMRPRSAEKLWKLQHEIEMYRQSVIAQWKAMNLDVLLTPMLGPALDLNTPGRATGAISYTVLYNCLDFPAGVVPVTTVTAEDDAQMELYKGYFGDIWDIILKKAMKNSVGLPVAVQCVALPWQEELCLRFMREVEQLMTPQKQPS

[20] = Ratio of drug level in brain to plasma in Sprague-Dawley rat at 10 mg/kg via oral gavage; format: ADME, organism-based; settings: read-out: BPR
[21] = species on record: Rattus norvegicus; settings: Sprague-Dawley, Brain, 6 mg/kg
Description: Inhibition of FAAH in Sprague-Dawley rat brain homogenate assessed as increase in PEA levels at 6 mg/kg after 0.5 to 4 hrs by liquid scintillation analysis

[22] = species on record: Rattus norvegicus; settings: Sprague-Dawley, Brain, 6 mg/kg; remark: listed apart in the source
Description: Inhibition of FAAH in Sprague-Dawley rat brain homogenate assessed as increase in OEA levels at 6 mg/kg after 0.5 to 4 hrs by liquid scintillation analysis

[23] = tested on: Rattus norvegicus; experiment: Inhibition of FAAH in Sprague-Dawley rat brain homogenate assessed as time duration needed for enzyme activity recovery by measuring [3H]-anandamide hydrolysis at 6 mg/kg by liquid scintillation analysis; format: functional
[24] = tested on: Rattus norvegicus; experiment: Inhibition of FAAH in Sprague-Dawley rat brain homogenate assessed as residual activity measured as [3H]-anandamide hydrolysis at 6 mg/kg after 4 hrs by liquid scintillation analysis; format: functional
[25] = tested on: Brain; experiment: Drug uptake in Sprague-Dawley rat brain at 20 mg/kg via oral gavage after 4 hrs by LC-MS/MS analysis; format: ADME, organism-based; settings: in vivo
[26] = tested on: Plasma; experiment: Drug uptake in Sprague-Dawley rat plasma at 20 mg/kg via oral gavage after 4 hrs by LC-MS/MS analysis; format: ADME, organism-based; settings: in vivo
[27] = species on record: Rattus norvegicus; settings: Sprague-Dawley, Brain, 20 mg/kg
Description: Inhibition of FAAH in Sprague-Dawley rat brain homogenate assessed as reduction in residual activity measured as [3H]-anandamide hydrolysis at 20 mg/kg measured after 0.5 to 6 hrs by liquid scintillation analysis

[28] = tested on: Rattus norvegicus; experiment: Inhibition of FAAH in Sprague-Dawley rat brain homogenate assessed as residual activity measured as [3H]-anandamide hydrolysis at 20 mg/kg within 30 mins by liquid scintillation analysis; format: functional

Row | clearance [3] | Vd [7] | bioavailability [10] | Kp [13] | IC50 [18] | IC50 [19] | Structure (SMILES) | OEA level increase (activity call) [1] | Time [5] | FAAH inhibition (PEA level increase), active/inactive [8] | other results
1 | 63.3 mL/min/kg | 10.7 L/kg | 60% | – | – | – | O=C(Nc1cnc2ccccn12)N1CCN(Cc2cccc(Oc3ccc(Cl)cc3)c2)CC1 | Active | 24 h | Active | inhibition in vivo at 20 mg/kg [2]: 60%; Activity [4]: < 10%; pKa [6]: 6.8; Activity [9]: <5%
2 | 11.5 mL/min/kg | 3.2 L/kg | – | 2.62 | – | – | O=C(Nc1cccnc1)N1CCN(Cc2cccc(Oc3ccc(Cl)cc3)c2)CC1 | – | 24 h | – | Kp [11]: 2.62; Kp [12]: 2.62; inhibition [14]: Active; pKa [15]: 5.25
3 | 3.33 mL/min/kg | 1.1 L/kg | 100% | – | – | – | O=C(Nc1nnn[nH]1)N1CCN(Cc2cccc(Oc3ccc(Cl)cc3)c2)CC1 | – | – | – | pKa [6]: 4.9
4 | – | – | – | 1.99 | – | – | O=C(Nc1cccnc1)N1CCN(Cc2cccc(Oc3ccc(C(F)(F)F)cc3)c2)CC1 | – | 24 h | – | inhibition [16]: Active; inhibition [17]: Active
5 | 13.3 mL/min/kg | 2.8 L/kg | 100% | 1.58 | 2.4 nM | 20 nM | O=C(Nc1cccnc1)N1CCN(Cc2cccc(Oc3ccc(Br)cc3)c2)CC1 | – | 24 h | – | –
6 | – | – | – | – | – | – | O=C(Nc1cccc2nccn12)N1CCN(Cc2cccc(Oc3ccc(Cl)cc3)c2)CC1 | Active | 24 h | Active | pKa [6]: 6.8
7 | – | – | – | 0.33 | 28 nM | 41 nM | O=C(Nc1cccnc1)N1CCCC(Cc2cccc(Oc3ccc(F)cc3)c2)C1 (stereo unspecified) | Active | 24 h | Active | –
8 | – | – | – | – | – | – | O=C(Nc1ccccc1)N1CCN(Cc2cccc(Oc3ccc(Cl)cc3)c2)CC1 | – | 24 h | – | Kp [20]: 3.64
9 | – | – | – | – | – | – | O=C(Nc1nn[nH]n1)N1CCN(Cc2cccc(Oc3ccc(Cl)cc3)c2)CC1 | – | – | – | inhibition [21]: Active; inhibition [22]: Active; Time [23]: 24 h; Activity [24]: <10%
10 | – | – | – | 1.26 | 8 nM | 76 nM | O=C(Nc1cccnc1)N1CCN(Cc2cc(Cl)cc(Oc3ccc(Cl)cc3)c2)CC1 | Active | 24 h | Active | Drug uptake [25]: Dose-dependent effect; Drug uptake [26]: Dose-dependent effect
11 | 10 mL/min/kg | 4 L/kg | 100% | 1.57 | 16 nM | 290 nM | O=C(Nc1cccnc1)N1CCN(Cc2cccc(Oc3ccc(F)cc3)c2)CC1 | Active | 24 h | Active | –
12 | 10 mL/min/kg | 2.6 L/kg | 50% | – | – | – | O=C(Nc1ccon1)N1CCN(Cc2cccc(Oc3ccc(Cl)cc3)c2)CC1 | Active | 24 h | Active | –
13 | – | – | – | 0.45 | 1 nM | 22 nM | O=C(Nc1cccnc1)N1CCC(Cc2cccc(Oc3ccc(Cl)cn3)c2)CC1 | Active | 24 h | Active | –
14 | – | – | – | 3.28 | 17 nM | 17 nM | N#Cc1ccncc1NC(=O)N1CCN(Cc2cccc(Oc3ccc(Cl)cc3)c2)CC1 | Active | 24 h | Active | pKa [15]: 1.9
15 | 46.5 mL/min/kg | 3.33 L/kg | 18% | 1.18 | 1.3 nM | 20 nM | O=C(Nc1cnccc1Cl)N1CCN(Cc2cccc(Oc3ccc(Cl)cc3)c2)CC1 | Active | 24 h | Active | pKa [15]: 3.85
16 | – | – | – | 2.26 | 4.3 nM | 215 nM | O=C(Nc1cccnc1)N1CCC(Cc2cccc(Oc3ccc(Cl)cc3)c2)CC1 | Active | 24 h | Active | –
17 | – | – | – | 0.67 | 3.3 nM | 48 nM | O=C(Nc1cnccc1Cl)N1CCN(Cc2cccc(Oc3ccc(F)cc3)c2)CC1 | Active | 24 h | Active | –
18 | 9.33 mL/min/kg | 2.48 L/kg | 44% | – | – | 8 nM | O=C(Nc1noc2ccccc12)N1CCN(Cc2cccc(Oc3ccc(Cl)cc3)c2)CC1 | Active | 24 h | Active | –
19 | 15.5 mL/min/kg | 4.11 L/kg | 35% | – | – | 84 nM | O=C(Nc1cnccn1)N1CCN(Cc2cccc(Oc3ccc(Cl)cc3)c2)CC1 | Active | 24 h | Active | inhibition [27]: Active; Activity [28]: 10%; pKa [15]: 0.6
20 | 8.33 mL/min/kg | 2 L/kg | 75% | – | – | – | O=C(Nc1cc[nH]n1)N1CCN(Cc2cccc(Oc3ccc(Cl)cc3)c2)CC1 | Active | 24 h | Active | pKa [15]: 2.5
